Data from patent EP0562849A2, “Steroid derivatives” (priority 1992, dated 1993).
“And” between values parts separate entries of the source, which are not always exact repeats. Identical values can stand only once. Like-named read-outs stand apart in the source and are kept apart here.

Tested on: human LDL receptor promoter
Assay: in vitro Luciferase Activity Test (LDL receptor promoter-luciferase reporter in recombinant CHO cells)
Type: cell-based
Design: MED: unit not given here
Conditions: for Emax: Homo sapiens, CHO, read-out: MA%; for Emax / MA%: maximum activity (%) over control; for MED: minimum effective dose (molar concentration, unit not given), 24 hr, assay medium with 0.5 µg/ml 25-hydroxycholesterol; for RED: relative effective dose compared to compound of Example 4, below one = more active
Experimental: A 1546 base pair sequence of the human LDL receptor promoter was amplified using the polymerase chain reaction. A reaction mixture containing 20 pMoles each of the synthetic oligonucleotides 5'-[…]-3' (Seq. I.D. No: 1) and 5'-AAG-[…]-3', (Seq. I.D. No:2) 1 µg human genomic DNA purified from the adenocarcinoma cell line P3UCLA, 200 µM each of dATP, dGTP, dCTP, and TTP, 2.5 units of Taq DNA polymerase, 10mM Tris-HCI pH 8.3, 50 mM KCI, […], 0.1% gelatin in a final volume of 100 µl was subjected to 30 cycles of 15 sec at 96°C, 30 sec at 55°C, and 1 min at 72°C. The material was subject to gel electrophoresis on a 1% agarose gel and the 1546 base pair band was isolated and restriction enzyme digested with Hind III and Nde I. This fragment was ligated into the plasmid pSP72 (ProMega Biotech), which had previously been restriction enzyme nuclease digested with Hind III and Nde I. The resulting vector, pNLDLRP, was restriction endonulease digested with Ndel and Hind III and the material was again run on a 1% agarose gel to reisolate the 1546 bp LDL receptor sequence.
Plasmid vector PSv2 was constructed by digesting plasmid pSv2-globin with Hind III and Bgl II then ligating an Nrul-Xhol linker into the vector. Plasmid pSv2 globin is disclosed in U.S. Patent No. 4,775,624, the entire teaching of which is herein incorporated by reference. The linker contained the following sequences: [formula] (Seq. I.D. No: 3), and [formula] ' (Seq. I.D. No:4).
The resulting vector was designated pSv2-H NXB because it contained a […], an Nrul site, an Xhol site and a Bgl site. The Hind III-Bgl II fragment of plasmid pAlc4(NRRL B-18783), which contains the firefly luciferase gene, was then ligated into the Hin III-Bgl site of plasmid pSv2-HNXB. A neomycin resistance-conforming gene was then ligated into the Bam HI site of the resultant plasmid to form plasmid pSv2.
A 1546 base pair fragment was isolated and cloned into a Ndel and Hind III (partial) restriction digested vector pSv2 containing the firefly luciferase reporter gene and a gene for neomycin resistance. The resulting vector, pLDL-Luc1 Neo-10, contains the human LDL receptor promoter driving expression of the firefly luciferase gene, a gene coding for neomycin resistance, ampicillin resistant marker and an origin of replication.
Plasmid pLDL-Luc 1 Neo-10 was used to stably transfect Chinese Hamster Ovary cells using a Lipofection Reagent kit and procedure from Gibco BRL Research Products Division Life Technologies Inc. Transformants were selected by picking individual colonies grown in Dulbecco's modified Eagle's medium supplimented with 10% fetal bovine serum and containing 500 µg per ml […]. […] Clone S27/B30 was used for subsequent screening.
In developing a cell based screen it is important to have a negative control. The viral SV40 promoter is ideal for this purpose in that it has a number of SP1 elements that enhance gene transcription. These elements are not under the control of end product repression; but they do have a high degree of sequence homology with the 16 base pair long sterol response element found in the LDL receptor promoter. The SV40 promoter should therefore be a sensitive mechanism to screen out agents that induce nonspecific transcription.
Chinese Hamster Ovary cells were stably cotransfected with a vector pSV2AL-A 5' containing the SV40 promoter driving expression of the firefly luciferase gene and a second vector pSV2 NeoBam containing a neomycin resistant marker. Transfections were carried out using the Lipofectin Reagent kit and procedure from Gibco BRL Research Products Division Life Technologies Inc. Transformants were selected by picking individual colonies grown in Dulbecco's modified Eagle's medium supplemented with 10% fetal bovine serum and containing 500 µg per ml of geneticin. Individual clones were selected, lysed and assayed for luciferase production. […]

[1] = 15% luciferase activity cutoff point (footnote 2)
[2] = NA is not active, 30% luciferase activity cutoff point (footnote 1)
[3] = tests using 15% luciferase activity cutoff point (footnote 2)
[4] = tests using 30% luciferase activity cutoff point (footnote 1)
[5] = 30% luciferase activity cutoff point (footnote 1)

SMILES	Emax [1]	Emax [2]	MED [3]	MED [4]	RED [1]	RED [5]	MA% [2]	MA% [1]
C[C@H](CCCN(C)C)[C@H]1CC[C@H]2[C@@H]3CC[C@@H]4C[C@H](O)CC[C@]4(C)[C@H]3CC[C@]12C [Example 51, 3a-hydroxy-25-azacoprostane]	173%	112%	1.28	6.4	1.16	1.13		
C[C@H](CCCN(C)C)[C@H]1CC[C@H]2[C@@H]3[C@H](O)C[C@@H]4C[C@H](O)CC[C@]4(C)[C@H]3C[C@H](O)[C@]12C [Example 53, 3a,7a,12a-trihydroxy-25-azacoprostane]							57% and 99%	
C=CC[C@H]1C2CC[C@@H]3[C@H](CC[C@]4(C)C(OCCCC(C)(C)C)CC[C@@H]34)[C@@]2(C)CC[C@H]1O (stereo partly drawn) [Example 69, (3α,4α)-17-[(4,4-dimethylpentyl)oxy]-4-(2-propenyl)-androstan-3-ol]	48%	39%	46.5		20.5	16.4 and 8.2	47%	
C[C@H](CCCN(C)C)[C@H]1CC[C@H]2[C@@H]3CC[C@@H]4C[C@H](O)CC[C@]4(C)[C@H]3C[C@H](O)[C@]12C [Example 50, 3a, 12a-dihydroxy-25-azacoprostane]		81%		6.2			92%	
C=C(C)C[C@@H]1[C@H](O)CC[C@@]2(C)[C@H]1CC[C@@H]1[C@@H]2CC[C@]2(C)[C@@H]([C@H](C)CCCC(C)C)CC[C@@H]12 [Example 89, (3a,4a,5a)-4-(2-methyl-2-propenyl)cholestan-3-ol]		102%		2.8		0.25		
CCCC[C@@H]1[C@H](O)CC[C@@]2(C)[C@H]1CC[C@@H]1[C@@H]2CC[C@]2(C)[C@@H]([C@H](C)CCCC(C)C)CC[C@@H]12 [Example 7, [4a,5a]-4-butylcholestan-3a-ol]	46%							30%
CC(C)CCC[C@@H](C)[C@H]1CC[C@H]2[C@@H]3CC[C@H]4[C@H](CC=C(F)F)[C@H](O)CC[C@]4(C)[C@H]3CC[C@]12C [Example 85, (3a, 4a, 5a, 20β)-4-(3,3-difluoro-2-propenyl) cholestan-3-ol]		138%		2.7		0.36		
CC(C)CCC[C@@H](C)[C@H]1CC[C@H]2[C@@H]3CC[C@H]4C[C@H](O)[C@H](Cc5ccc(F)cc5)C[C@]4(C)[C@H]3CC[C@]12C [Example 79, (2a, 3a, 5a)-2-[(4-fluorophenyl)methyl]cholestan-3-ol]		29%		40.3		5.4		
CC(C)CCC[C@@H](C)[C@H]1CC[C@H]2[C@@H]3CCC4[C@H](Cc5ccc(Cl)c(Cl)c5)[C@H](O)CC[C@]4(C)[C@H]3CC[C@]12C (stereo partly shown) [Example 27, 4a-(3,4-dichlorobenzyl)cholestan-3a-ol]	32%		9.1		4.0			
CC(C)CCC[C@@H](C)[C@H]1CC[C@H]2[C@@H]3CCC4[C@H](Cc5ccc(C(F)(F)F)cc5)[C@H](O)CC[C@]4(C)[C@H]3CC[C@]12C (stereo partly shown) [Example 26, 4a-(4-trifluoromethylbenzyl)cholestan-3a-ol]			9.1					59% and 34%
CC(C)CCC[C@@H](C)[C@H]1CC[C@H]2[C@@H]3CCC4[C@H](Cc5ccc(Cl)cc5)[C@H](O)CC[C@]4(C)[C@H]3CC[C@]12C (stereo partly shown) [Example 31, 4a-(4-chlorobenzyl)cholestan-3a-ol]	46%		9.7		4.3			
CC(C)CCC[C@@H](C)[C@H]1CC[C@H]2[C@@H]3CCC4[C@H](Cc5ccc(CO)cc5)[C@H](O)CC[C@]4(C)[C@H]3CC[C@]12C (stereo partly shown) [Example 33, 4a-(4-hydroxymethylbenzyl)cholestan-3a-ol]	28%		9.8		4.3			
C/C=C/C[C@@H]1[C@H](N)CC[C@@]2(C)[C@H]1CC[C@@H]1[C@@H]2CC[C@]2(C)[C@@H]([C@H](C)CCCC(C)C)CC[C@@H]12 [Example 8, [4a(E), 5a]-4-(2-butenyl)-3a-aminocholestone]		51%		5.6		2.50		
CC(C)CCC[C@@H](C)[C@H]1CC[C@H]2[C@@H]3CCC4[C@H](Cc5ccc(OCc6ccccc6)cc5)[C@H](O)CC[C@]4(C)[C@H]3CC[C@]12C (stereo partly shown) [Example 32, 4a-(4-benzyloxybenzyl)cholestan-3a-ol]	36%		8.6		3.8			
C=CC[C@H]1C2CC[C@@H]3[C@H](CC[C@]4(C)C(OCCCc5ccccc5)CC[C@@H]34)[C@@]2(C)CC[C@H]1O (stereo partly drawn) [Example 67, (3α,4α)-17-(3-phenylpropoxy)-4-(2-propenyl)androstan-3-ol]				11.1 and 22.2			111% and 76%	116% and 118% and 74%
C=CC[C@@H]1[C@H](O)CC[C@@]2(C)[C@H]1CC[C@@H]1[C@@H]2CC[C@]2(C)C(OCCCCCCCC)CC[C@@H]12 (stereo partly shown) [Example 65, (3a,4a,5a)-17-(octyloxy)-4-(2-propenyl)androstan-3-ol]			11.3 and 22.5					
C[C@H](CCCN(C)C)[C@H]1CC[C@H]2[C@@H]3[C@H](O)C[C@@H]4C[C@H](O)CC[C@]4(C)[C@H]3CC[C@]12C [Example 52, 3a,7a-dihydroxy-25-azacoprostane]							121% and 85% and 136% and 86% and 84%	
C=C(Br)C[C@@H]1[C@H](O)CC[C@@]2(C)[C@H]1CC[C@@H]1[C@@H]2CC[C@]2(C)[C@@H]([C@H](C)CCCC(C)C)CC[C@@H]12 [Example 93, (3a,4a,5a)-4-(2-bromo-2-propenyl)cholestan-3-ol]		131%		4.9		0.43		
C=C(Cl)C[C@@H]1[C@H](O)CC[C@@]2(C)[C@H]1CC[C@@H]1[C@@H]2CC[C@]2(C)[C@@H]([C@H](C)CCCC(C)C)CC[C@@H]12 [Example 91, (3a,4a,5a)-4-(2-chloro-2-propenyl)cholestan-3-ol]		96%		2.7		0.24		
C=CC[C@@H]1[C@H](O)CC[C@@]2(C)[C@H]1CC[C@@H]1[C@@H]2CC[C@]2(C)[C@@H]([C@H](C)CC[C@@H](CC)C(C)C)CC[C@@H]12 [Example 96, (3a, 4a, 5a)-4-(2-propenyl)-stigmastan-3-ol]		93%		8.3		0.73		
CC(C)CCC[C@@H](C)[C@H]1CC[C@H]2[C@@H]3CCC4[C@H](Cc5ccc(C(=O)O)cc5)[C@H](O)CC[C@]4(C)[C@H]3CC[C@]12C (stereo partly shown) [Example 34, 4a-(4-carboxybenzyl)cholestan-3a-ol]	38%		4.8		2.1			
C=CC[C@@H]1[C@H](O)CC[C@@]2(C)[C@H]1CC[C@@H]1[C@@H]2CC[C@]2(C)[C@@H]([C@H](C)CCCN(C)C)CC[C@@H]12 [Example 44, 4a-(2-propenyl)-cholan-24-N,N-dimethylamino-3a-ol]	62%						77% and 56%	78%
COC(=O)c1ccc(C[C@H]2C3CC[C@H]4[C@@H]5CC[C@H]([C@H](C)CCCC(C)C)[C@@]5(C)CC[C@@H]4[C@@]3(C)CC[C@H]2O)cc1 (stereo partly shown) [Example 29, 4a-(4-methoxycarbonylbenzyl)cholestan-3a-ol]	37%		14		2.5			
